CC(C)=CCOc1c2occc2cc2ccc(=O)oc12
solubility (mole fraction)
Settings | 288.2 K | 293.2 K | 298.2 K | 303.2 K | 308.2 K | 313.2 K | 318.2 K | 323.2 K | 328.2 K
in ethanol | 0.00325 | 0.00454 | 0.0063 | 0.00865 | 0.0118 | 0.016 | 0.0215 | 0.0288 | 0.0382
in water | 7.4e-07 | 1.03e-06 | 1.06e-06 | 1.03e-06 | 1.35e-06 | 1.46e-06 | 1.5e-06 | 1.53e-06 | 1.81e-06
